Values joined by “and” are separate entries in the source; they are usually repeats but may differ in a detail not shown here. Equal values may be shown once. Read-outs that look alike come from different tables or passages of the source. Numbered stars: 1 amine (or outer) side, 2 acyl side, 3 side chain; on linkers, the order of the positions; unused ones are H or OH. Square brackets hold non-standard residues; d marks the D form. Peptide text beside a SMILES is read from it. X1 = O=C(c1ccc(-c2ccc(N3CCNCC3)cc2)c(CN[*:1])c1)[*:2]
Molecular target: T1, integrin α4β7 (Homo sapiens, UniProt P13612+P26010)
T1 sequence (P13612 34-1032): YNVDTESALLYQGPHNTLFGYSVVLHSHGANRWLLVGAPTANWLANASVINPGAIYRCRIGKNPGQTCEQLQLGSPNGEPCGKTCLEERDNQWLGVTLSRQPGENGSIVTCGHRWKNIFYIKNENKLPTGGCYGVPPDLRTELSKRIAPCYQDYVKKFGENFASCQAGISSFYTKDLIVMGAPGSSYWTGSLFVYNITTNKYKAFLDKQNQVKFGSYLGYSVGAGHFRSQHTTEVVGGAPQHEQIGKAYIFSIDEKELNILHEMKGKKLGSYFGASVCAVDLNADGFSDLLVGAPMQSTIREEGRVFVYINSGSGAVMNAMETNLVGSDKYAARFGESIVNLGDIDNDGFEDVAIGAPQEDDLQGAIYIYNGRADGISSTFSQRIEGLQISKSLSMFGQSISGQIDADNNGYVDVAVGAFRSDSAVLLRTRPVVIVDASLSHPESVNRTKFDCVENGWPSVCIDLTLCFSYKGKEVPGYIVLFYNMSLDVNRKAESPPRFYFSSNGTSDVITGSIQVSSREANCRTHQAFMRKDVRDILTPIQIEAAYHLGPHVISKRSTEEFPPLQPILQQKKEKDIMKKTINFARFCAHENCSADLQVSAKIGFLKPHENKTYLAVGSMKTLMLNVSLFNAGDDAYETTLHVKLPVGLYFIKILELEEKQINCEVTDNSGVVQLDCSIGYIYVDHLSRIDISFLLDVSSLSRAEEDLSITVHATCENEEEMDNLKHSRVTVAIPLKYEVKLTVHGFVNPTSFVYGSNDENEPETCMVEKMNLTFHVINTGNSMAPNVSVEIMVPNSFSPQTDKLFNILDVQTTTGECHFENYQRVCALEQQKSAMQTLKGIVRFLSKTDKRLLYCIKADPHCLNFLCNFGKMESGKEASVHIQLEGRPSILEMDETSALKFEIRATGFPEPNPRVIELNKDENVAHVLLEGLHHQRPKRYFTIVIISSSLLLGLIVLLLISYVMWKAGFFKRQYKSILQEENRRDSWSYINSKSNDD
T1 sequence (P26010 20-798): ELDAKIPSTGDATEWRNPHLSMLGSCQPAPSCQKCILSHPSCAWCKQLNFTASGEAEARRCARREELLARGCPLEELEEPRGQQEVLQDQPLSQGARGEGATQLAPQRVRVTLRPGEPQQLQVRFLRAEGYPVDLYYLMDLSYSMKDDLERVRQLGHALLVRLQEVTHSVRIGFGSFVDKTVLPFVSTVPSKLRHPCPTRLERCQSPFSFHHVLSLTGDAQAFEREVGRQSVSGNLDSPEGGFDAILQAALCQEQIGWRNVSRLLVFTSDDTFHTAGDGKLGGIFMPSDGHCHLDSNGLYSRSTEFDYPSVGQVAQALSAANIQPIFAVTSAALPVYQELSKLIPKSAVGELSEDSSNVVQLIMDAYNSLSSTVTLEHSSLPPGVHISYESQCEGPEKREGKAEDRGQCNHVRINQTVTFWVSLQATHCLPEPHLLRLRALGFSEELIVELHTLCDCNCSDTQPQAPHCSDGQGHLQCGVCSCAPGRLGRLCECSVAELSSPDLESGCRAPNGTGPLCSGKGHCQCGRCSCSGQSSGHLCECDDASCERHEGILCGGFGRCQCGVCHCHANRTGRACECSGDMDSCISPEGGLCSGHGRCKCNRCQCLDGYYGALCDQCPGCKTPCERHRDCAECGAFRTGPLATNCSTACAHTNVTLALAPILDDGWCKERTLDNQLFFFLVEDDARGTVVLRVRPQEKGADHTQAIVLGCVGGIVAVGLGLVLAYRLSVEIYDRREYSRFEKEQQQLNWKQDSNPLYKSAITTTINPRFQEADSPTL
Test: Whole blood ligand displacement (receptor occupancy): biotinylated rhMAdCAM-1 binding to α4β7+ Th memory cells
Assay type: cell-based
Settings: for selectivity of RO versus α4β1 (fold difference in IC50 between assays): whole blood, α4β7 versus α4β1
Procedure: Receptor occupancy (RO) in primary cells was determined by measuring the amount of biotinylated human recombinant MAdCAM-1-FC or human recombinant VCAM-1-Fc bound to selected cell populations using flow cytometry. Human recombinant MAdCAM-1-FC or human recombinant VCAM-1-FC (R&D systems) were biotinylated using commercially available reagents and protocol (Pierce). Whole blood was collected from human donors in sodium heparin tubes. […] Cells were washed twice with 1 mL of 1×DPBS calcium magnesium free(CMF) (ThermoFisher Scientific) and resuspended in 100 μL of DPBS CMF. […] Cells were washed with 1 mL stain buffer-FBS (BD Biosciences) and resuspended in 100 μl stain Buffer-FBS (BD Biosciences) containing 4 mM MnCl2. […] Cells were then washed with 1 mL stain buffer-FBS and resuspended in 100 μl stain buffer-FBS. The cells were incubated in the dark for 30 minutes at room temperature with 1 μl Streptavidin APC (Biolegend 0.2 mg/ml) and a panel of antibodies for the detection of memory T helper a4b7-positive cells subset. And amount of 5.0 μl each of the following antibodies were used; CD45 FITC (BioLegend 200 μg/ml), CD29 APC Cy7 (BioLegend 100 μg/ml), Integrin beta7 PE, (BioLegend concentration 50 μg/mL), CD49d […] (BioLegend 50 μg/mL), CD3 […] (BioLegend 30 μg/mL), CD4 PECy7 (BioLegend 100 μg/mL), CD45RO PerCP, BioLegend 200 μg/mL). The cells were then washed with stain-buffer-FBS and resuspended in 150 μL stain buffer-FBS for acquisition on the flow cytometer (BD FACSCantoTM flow cytometer and […] software). FACS data was acquire by electronic gating on the basis of forward versus side scatter, The cytometer was set to collect 20,000 events in each tube. Cell population were determined using the following markers, CD45+, CD3+, CD4+, CD45RO+, CD49d+, integrin β7, biotinylated ligands.

[1] = α4β7 Th memory cells, human whole blood, read-out: MAdCAM-1 Competition IC50 (receptor occupancy)

Row | SMILES | α4β7 RO IC50 (human whole blood) | selectivity of RO versus α4β1 (fold difference in IC50 between assays) | IC50 [1] | competition with MAdCAM-1 on α4β7-positive primary cells, result in words (human whole blood) | IC50 (human whole blood, read-out: α4β7 RO IC50) [nM]
1 | CC(C)C[C@@H]1NC(=O)c2ccc(-c3ccc(N4CCN(Cc5cccc(CN6CCN(c7ccc(-c8ccc9cc8CNC(=O)[C@@H]8CCCN8C(=O)[C@H](C)NC(=O)[C@H]([C@@H](C)O)NC(=O)[C@H](CC(=O)O)NC(=O)[C@H](CC(C)C)NC9=O)cc7)CC6)c5)CC4)cc3)c(c2)CNC(=O)[C@@H]2CCCN2C(=O)[C@H](C)NC(=O)[C@H]([C@@H](C)O)NC(=O)[C@H](CC(=O)O)NC1=O [Compound 18] | sub-micromolar | selectivity versus α4β1 | 25 nM and 24.7 nM |  | 
2 | CC(C)C[C@@H]1NC(=O)c2ccc(-c3ccc(N4CCNCC4)cc3)c(c2)CNC(=O)[C@@H]2CCCN2C(=O)[C@H](C)NC(=O)[C@H]([C@@H](C)O)NC(=O)[C@H](CC(=O)O)NC1=O [Compound 8] (cyclo(P[X1]LDTA)) |  | no selectivity | > 4000 nM | relatively weak concentration-response curve | > 4000

From patent US11286281B2, “Homodetic cyclic peptides targeting alpha-4-beta-7 integrin” (priority 2017, dated 2022)
